The results in this text go back to patent US7034024B1, “Product inhibiting transduction of G heterotrimeric protein signals combined with another anti-cancer agent for therapeutic use in cancer treatment” (Societe de Conseils de Recherches et d'Applications …, priority 1999, dated 2006).

The assay concerns Mia-Paca2 cells (human pancreatic cancer cells). Put plainly: Measurement of cell proliferation in vitro (WST1 colorimetric test, polyhema-coated plates). Set-up: Observed values (living cells): scale not given here. In kind it is cell-based. Particulars: for Compound B1 alone (observed value of living cells) / Compound B5 alone (observed value of living cells): 0 μM = 100; for Compound B4 alone (observed value of living cells) / Compound B2 alone (observed value of living cells) / Compound B3 alone (observed value of living cells): 0 nM = 100. As for the experimental part: The cell line Mia-Paca2 (human pancreatic cancer cells) was acquired from the American Tissue Culture Collection (Rockville, Md., USA).
The Mia-Paca2 cells (1500 cells/wells) are cultured in 96-well plates pre-coated with polyhema (Sigma) which allows only the growth of cells presenting a tumorigenic phenotype.
On day 0, these cells are seeded in 90 μl of Dulbecco's modified Eagle medium (Gibco-Brl, Cergy-Pontoise, France) completed with 10% of foetal calf serum inactivated by heating (Gibco-Brl, Cergy-Pontoise, France), 50000 units/l of penicillin and 50 mg/l streptomycin (Gibco-Brl, Cergy-Pontoise, France), and 2 mM of glutamin (Gibco-Brl, Cergy-Pontoise, France).
The cells were treated with increasing concentrations of two products alone or combined in a matrix, i.e.: on day 1, with the first product for 96 hours and on day 2 with the second product for 72 hours. According to method α, the transduction inhibitor of heterotrimeric G protein signals with which the anti-cancer agent is combined is administered before the latter, then according to method β, it is done so after.
At the end of this period, quantification of cell proliferation is evaluated by a colorimetric test based on the cleavage of the tetrazolium salt WST1 by mitochondrial dehydrogenases in the living cells leading to the formation of formazan (Boehringer Mannheim, Meylan, France). These tests are carried out in duplicate with 4 measurements for each single product and for each combination tested. This allows the number of living cells at the end of each treatment to be determined, i.e. the observed value. The calculated value of the living cells for each treatment corresponds to the multiplication of the observed values of the effects of separate products. These observed and calculated values are compared for each combination. When the observed value of living cells is lower than the calculated value of the living cells, a synergy is considered to exist. When the observed value is equal to the calculated value, a additive effect is considered to exist. When the observed value is greater than the calculated value, an antagonism is considered to exist.

Turning to “1-(2-(1-((4-cyano)phenylmethyl)imidazol-4-yl)-1-oxoethyl-2,5-dihydro-4-(2-methoxyphenyl)imidazo[1,2c][1,4]benzodiazepine [compound B1]”, the “Compound B1 alone (observed value of living cells)” value reads like this: (B1 0.04 μM alone, Table I) 94 ± 2.3; (B1 0.2 μM alone, Table I) 80 ± 4.2; (B1 1 μM alone, Table I) 68 ± 2.3.

With “4-(2-bromophenyl)-1-(2-(1-((4-cyano-3-methoxy)phenylmethyl)-imidazo-5-yl)-1-oxoethyl)-1,2-dihydro-8-fluoro-imidazo[1,2a][1,4]-benzodiazepine [compound B5]”, the “Compound B5 alone (observed value of living cells)” value is, setting by setting: (B5 0.2 μM alone, Table V) 86 ± 0.9; (B5 1 μM alone, Table V) 63 ± 2.6.

For `Cn1cncc1C(N)(c1ccc(Cl)cc1)c1ccc2c(c1)c(-c1cccc(Cl)c1)cc(=O)n2C` (racemic) [compound B4, (±)-4-(3-chlorophenyl)-6-[(4-chlorophenyl)-amino-(1-methyl-1H-imidazol-5-yl)methyl]-1-methyl-2(1H)quinolinone, reference compound], the “Compound B4 alone (observed value of living cells)” value (“Compound B4 alone” below) (B4 40 nM alone, Table IV) is reported as 104 ± 2.0; the “Compound B4 alone” value (B4 0.2 μM alone, Table IV) is 90 ± 9.0; the “Compound B4 alone” value (B4 1 μM alone, Table IV) turned out to be 72 ± 3.

For `Cc1ccccc1-c1cn2c(n1)C(CC1CCCCC1)N(C(=O)C(N)CS)CC2` (stereo not shown) [compound A1, 7-(2-amino-1-oxo-3-thiopropyl)-8-(cyclohexylmethyl)-2-(2-methylphenyl)-5,6,7,8-tetrahydroimidazo[1,2a]pyrazine], the “Observed values (living cells)” value runs as follows: (A1 20 μM alone (B1 0 μM), method α, n = 4, Table I) 51 ± 8.9; (A1 20 μM alone (B2 0 nM), method α, n = 3, Table II) 49 ± 7.7; (A1 20 μM alone (B3 0 nM), method α, n = 3, Table III) 65 ± 7.3.

Turning to `NC(CS)C(=O)N1CCn2cc(-c3ccccc3)nc2C1CC1CCCCC1` (stereo not shown) [compound A2, 7-(2-amino-1-oxo-3-thiopropyl)-8-(cyclohexylmethyl)-2-phenyl-5,6,7,8-tetrahydroimidazo[1,2a]pyrazine], the “Observed values (living cells)” value is, setting by setting: (A2 20 μM alone (B4 0 nM), method β, n = 2, Table IV) 42 ± 11.0; (A2 20 μM alone (B5 0 μM), method β, n = 3, Table V) 44 ± 6.4.

For `CC(=O)O[C@H]1C(=O)[C@@]2(C)[C@H]([C@H](OC(=O)c3ccccc3)[C@]3(O)C[C@H](OC(=O)[C@H](O)[C@@H](NC(=O)c4ccccc4)c4ccccc4)C(C)=C1C3(C)C)[C@]1(OC(C)=O)CO[C@@H]1C[C@@H]2O` [compound B2, taxol, reference compound], the “Compound B2 alone (observed value of living cells)” value is given as 100 ± 5.8 (B2 0.8 nM alone, Table II); 100 ± 0.3 (B2 4 nM alone, Table II); 60 ± 10.6 (B2 20 nM alone, Table II).

On to `Nc1ccn([C@@H]2O[C@H](CO)[C@@H](O)C2(F)F)c(=O)n1` [compound B3, gemcitabine, reference compound], for which the “Compound B3 alone (observed value of living cells)” value runs as follows: (B3 4 nM alone, Table III) 95 ± 9.8; (B3 20 nM alone, Table III) 72 ± 11.5; (B3 100 nM alone, Table III) 62 ± 1.9.
